Test results as given in US20220096529A1, “2-HYDROXYPROPYL-BETA-CYCLODEXTRIN (HPBETACD) FOR USE IN THE TREATMENT OF BREAST CANCER” (UNIVERSITY OF THE WITWATERSRAND, JOHANNESBURG, priority 2019, published 2022).
“And” between values parts separate entries of the source, which are not always exact repeats. Equal entries are not always repeated. “Also recorded” adds a separate entry of the source.

Experiments:
[1] = tested on: MCF7 cells; experiment: Cholesterol quantification assay; type: cell-based, human; settings: MCF7, all concentrations 1, 5, 10, 20, 50 mM
Procedure: (§1) To investigate if the apoptosis observed from all the above assays was due to cholesterol depletion, a cholesterol assay was performed on all three cell lines: MCF7, MDA-MB-231 and MRC-5. HPβCD and the positive PL, a known cholesterol depletor were treated for 24 hrs.
(§2) HPβCD and the positive (40 μM PL) were treated for 24 hrs. This assay gave us an estimate of total cholesterol, cholesterol esters and free cholesterol.

[2] = tested on: MDA-MB-231 cells; experiment: Cholesterol quantification assay; type: cell-based, human; settings: MDA-MB-231, all concentrations 1, 5, 10, 20, 50 mM
Procedure: as §1, §2

[3] = tested on: MRC-5 cells; experiment: Cholesterol quantification assay; type: cell-based, human
Procedure: as §1, §2

[4] = AST/ALT assay of mice serum; type: in vivo
Procedure: Post-euthanisation, the mice serum was analysed for AST/ALT ([…]) levels in order to observe if HPβCD treatment had any toxic effects on liver of treated mice (FIG. 37). The AST/ALT ratio gives an estimate of liver toxicity or damage. […] The AST/ALT ratio for all the early and intermediate groups was not different from the untreated group, was under the recommended ratio of 2 and the values were below the reference range (40 U/L) except for AST levels in the late group. In latter groups, the ratio of AST/ALT was 2.2 which was slightly above the recommended limit but was not found to be statistically different from the untreated group. […] In this regard review FIG. 37.

[5] = tested on: MDA-MB-231 tumours; experiment: Hematoxylin and eosin staining of xenograft tumours; type: in vivo, mice
From the text: Hematoxylin and cosin staining of mice was undertaken in untreated, intermediate and late stage MDA-MB-231 mice as is shown in FIG. 36.
The individual cells are markedly pleomorphic and have raised nuclear to cytoplasmic ratios. The neoplastic cells have irregular nuclear borders and the cells have vesicular chromatic with one to multiple prominent nucleoli. Brisk mitotic activity is evident. Areas of perineural and lymphovascular invasion are however, not documented.

[6] = tested on: MCF7 cells; experiment: Filipin cholesterol staining; type: cell-based, human
[7] = tested on: MCF7 cells; experiment: Mice xenograft, ER+ breast cancer; type: in vivo, Nude Mice, MF-1 strain
Procedure: (§3) Since the potency of HPβCD against breast cancer was established in our in vitro assays, a thorough investigation in a mice model was conducted (Nude Mice. MF-1 strain). MCF-7 and MDA-MB-231 cells were injected in 32 mice (16 for each cell type) and after tumour development, was treated with HPβCD (3000 mg/kg b.w.). Thrice a week dose treatment plan was followed throughout the study.
(§4) To examine if HPβCD can be used as a future anti-breast cancer drug, mice xenografts were prepared. MCF7 cells (5 million) cells were injected in 16 mice with weekly β-estradiol supplementation. The study for triple negative induced breast cancer (MDA-MB-231) is complete. Up to 4 million cells were injected in 16 mice. This was subdivided in three more groups namely: Late stage, intermediate stage and early stage estrogen negative cancer. 4 mice were grouped as untreated (not receiving HPβCD), 4 for treated (late stage), 3 for treated (intermediate stage) and 3 for treated (early stage).
The anticancer effect of HPβCD on estrogen positive MCF7 cells induced tumours in xenograft mice model was also tested. The study was not completed as only 4 out of 16 mice developed tumours. But the mice who developed tumour were treated with HPβCD and 9.6% tumour reduction was observed (FIGS. 49 and 50).

[8] = tested on: MDA-MB-231 cells; experiment: Mice xenograft, triple negative breast cancer; type: in vivo, Nude Mice, MF-1 strain
Procedure: as §3, §4
This is because MDA-MB-231 cells are extremely aggressive in nature and that is the reason there is any adequate treatments except the side effects prone to chemotherapy. These 4 mice had to be euthanized at this point because of humane end points. In the late stage treated group, the treatment commenced when the size of the tumour was in between 900 mm^3 to 1350 mm^3 (FIG. 30 A, B, C).
In the intermediate stage group (n=3), the treatment commenced when the size of the tumours reached […]. Again, after 10 doses of HPβCD treatment we saw the average size of the tumours went down to […] which is a staggering 94% decrease (FIG. 31 B, C) as compared to the untreated group. This was remarkable considering how invasive MDA-MB-231 cells are and HPβCD's ability to tame them was quite phenomenal. Finally, in the early stage group (n=3), the treatment commenced when the tumour size was 20 mm^3 (FIG. 33 A. B). […] These 3 mice were then kept for a period of 4 weeks to check for relapse of tumour because estrogen negative tumours have an extreme propensity to recur.

[9] = tested on: MCF7 cells; experiment: ROS assay; type: cell-based, human
Procedure: (§5) To further validate the occurrence of apoptosis and to investigate the exact mechanisms if apoptosis, a ROS assay was conducted to capture the production of ROS. […] In order to be in solidarity with this fact, a ROS assay was performed in three cell lines: MCF7, MDA-MB-231 & MRC-5. Like before, HPβCD and the positive (10 mM H2O2) were treated for 24 hrs. The right hand section in each plot represents the production of ROS.

[10] = tested on: MDA-MB-231 cells; experiment: ROS assay; type: cell-based, human
Procedure: as §5

[11] = tested on: MRC-5 cells; experiment: ROS assay; type: cell-based, human
Procedure: as §5

[12] = tested on: MDA-MB-231 tumours; experiment: Filipin cholesterol staining of tumour tissue from mice; type: in vivo; settings: intermediate and late stage tumours
From the text: 4 from untreated, 3 from intermediate and 4 from late stage.

[13] = late stage treated mice, one value per case
[14] = intermediate stage, 3000 mg/kg b.w., 10 doses

Substance: 2-hydroxypropyl-β-cyclodextrin [HPβCD]
- total cholesterol content compared to untreated [1]: reduced total cholesterol content
- total cholesterol content compared to untreated [2]: reduced total cholesterol content
- total cholesterol reduction compared to untreated ([3]; MRC-5, 10 mM HPβCD, 24 hrs): more than 50%
- total cholesterol content compared to untreated ([3]; MRC-5, all concentrations 1, 5, 10, 20, 50 mM): reduced total cholesterol content
- AST/ALT ratio ([4]; early and intermediate groups): < 2
- ratio of AST/ALT ([4]; late group, mice serum post-euthanisation): 2.2
- liver toxicity ([4]; mouse, in vivo, 3000 mg/kg): caused no toxicity
- necrosis, share of the total tumour examined ([5]; intermediate group): 6-10%
- MITOSES ([5]; intermediate stage treated mice, one value per case): 70 Atypical and 59 Atypical and 67 Atypical
- NECROSIS ([5]; intermediate stage treated mice, one value per case (INTM 13, 31, 32)): Focal necrosis; also recorded: Occasional; also recorded: Multiple pockets
- apoptotic cells compared to the intermediate group ([5]; late group): 2.9 times
- increase in number of apoptotic cells compared to the untreated group ([5]; late group): ~1.7 fold
- mitotic activity lower than in the other two groups ([5]; late group): approximately 1.1 times
- increase in necrosis compared to the untreated group ([5]; late group, case Late 12): ~4 fold
- necrosis, share of the tissue examined ([5]; late group, case Late 12): up to 20%
- APOPTOSIS/ 10 HPF [5, 13]: 21 and 30 and 39 and 32 and 27
- EPID/ MUSCLE INV. [5, 13]: No muscle present; also recorded: No muscle or epidermis; also recorded: Muscle invasion
- MITOSES [5, 13]: 60 and 65 and 57 and 59 and 50
- NECROSIS ([5]; late stage treated mice, one value per case (LATE 8 (1), 8 (2), 11, 12, 14)): Necrosis seen
- Filipin fluorescence compared to untreated ([6]; MCF7, 10 mM HPβCD, 24 hrs, ImageJ): four times less fluorescence
- cholesterol (Filipin staining) in treated vs untreated cells ([6]; MCF7, FIG. 51): decreased cholesterol
- average tumour size ([7]; ER+ MCF7 mice, treated for 5 weeks): 5.3 mm^3
- tumour outcome ([7]; Mouse No. 29, 30 and 32, treated for 5 weeks): healed completely
- tumour size ([7]; Mouse No. 31, treated for 5 weeks): 21.28 mm^3
- tumour outcome ([8]; early stage (20 mm^3 at start), 3000 mg/kg b.w., 10 doses, 3000 mg/kg): completely healed; also recorded: Complete healing of tumour
- average size of the tumours [8, 14]: 784.18 mm3
- tumour reduction compared to the untreated group [8, 14]: 94%
- tumour reduction compared to the untreated group ([8]; late stage, 3000 mg/kg b.w. intraperitoneally, 10 doses): 73.9%
- relapse of tumour ([8]; three healed early stage mice, 4 weeks): no recurrence of the tumour; also recorded: no relapse at all
- ROS production compared to untreated ([9]; MCF7, 10 mM HPβCD): about 2.5 fold
- ROS generation ([9]; MCF7, 10 mM, 24 hrs): 17.9%
- ROS production compared to untreated ([10]; MDA-MB-231, 10 mM HPβCD): about 4 fold
- ROS generation ([10]; MDA-MB-231, 10 mM, 24 hrs): 13.7%
- ROS production compared to untreated ([11]; MRC-5, 10 mM HPβCD): ~4 folds
- ROS generation ([11]; MRC-5, 10 mM, 24 hrs): 10.8%
- cholesterol (Filipin staining) in tumours compared to untreated [12]: decreased cholesterol
